What was measured:
[1] = test system: PC3 (prostate); test: In vitro cytotoxic activity MTT assay, PC3; assay type: cell-based; conditions: Homo sapiens, Prostate cell, cells exposed for 96 hours, read-out: Cytotoxicity activity IC50 (50% inhibition of cell proliferation)
Description: (§1) Compounds 1-16 were screened for their in vitro cytotoxic activity utilizing a 3-(4,5-dimethyl-thiazol-2-yl)-2,5-diphenyltetrazolium bromide (MTT) assay against selected cancer human cell lines consisting of PC3 (prostate), HCT116 (colon), A375 (melanoma), H1299 (lung), MIAPaCa-2 (pancreas), HL60 (leukemia), MCF7 (breast), MDA-MB-231 (breast) (T. Mosmann, J. Immunol. Meth., 1983, 65, 55-63). The cells were cultured at 37° C. in RMPI1640 medium supplemented with 10% fetal bovine serum, 50 IU/mL penicillin, and 50 μg/mL streptomycin in a 5% CO2 incubator. All cells were sub-cultured 3 times/week by trypsinisation. Viable cells were seeded and allowed to adhere for 12 hours before a test drug was added in 96-well plates at an initial density of 1.0×10^5 cells/mL. Tumor cell lines were separately exposed to various concentrations of the tested compounds followed by incubation at a temperature of 37° C. during 96 hours inside a medium of fresh RMPI 1640. Cells were subsequently incubated at 37° C. using MTT at 0.5 mg/mL during 4 hours. After removal of supernatant, formazan crystals were dissolved in isopropanol and the optical density was measured at 570 nm. CX-4945 was used as a positive control.

[2] = test system: HCT116 (colon); test: In vitro cytotoxic activity MTT assay, HCT116; assay type: cell-based; conditions: Homo sapiens, HCT-116, cells exposed for 96 hours, read-out: Cytotoxicity activity IC50 (50% inhibition of cell proliferation)
Description: as §1

[3] = test system: A375 (melanoma); test: In vitro cytotoxic activity MTT assay, A375; assay type: cell-based; conditions: Homo sapiens, A-375, cells exposed for 96 hours, read-out: Cytotoxicity activity IC50 (50% inhibition of cell proliferation)
Description: as §1

[4] = test system: H1299 (lung); test: In vitro cytotoxic activity MTT assay, H1299; assay type: cell-based; conditions: Homo sapiens, NCI-H1299, cells exposed for 96 hours, read-out: Cytotoxicity activity IC50 (50% inhibition of cell proliferation)
Description: as §1

[5] = test system: MIAPaCa-2 (pancreas); test: In vitro cytotoxic activity MTT assay, MIAPaCa-2; assay type: cell-based; conditions: Homo sapiens, MIA PaCa-2, cells exposed for 96 hours, read-out: Cytotoxicity activity IC50 (50% inhibition of cell proliferation)
Description: as §1

[6] = test system: HL60 (leukemia); test: In vitro cytotoxic activity MTT assay, HL60; assay type: cell-based; conditions: Homo sapiens, HL-60, cells exposed for 96 hours, read-out: Cytotoxicity activity IC50 (50% inhibition of cell proliferation)
Description: as §1

[7] = test system: MCF7 (breast); test: In vitro cytotoxic activity MTT assay, MCF7; assay type: cell-based; conditions: Homo sapiens, cells exposed for 96 hours, read-out: Cytotoxicity activity IC50 (50% inhibition of cell proliferation)
Description: as §1

[8] = test system: MDA-MB-231 (breast); test: In vitro cytotoxic activity MTT assay, MDA-MB-231; assay type: cell-based; conditions: Homo sapiens, cells exposed for 96 hours, read-out: Cytotoxicity activity IC50 (50% inhibition of cell proliferation)
Description: as §1

[9] = molecular target: T1, recombinant human CK2 (RRBB-holoenzyme) (Homo sapiens, UniProt P68400); test: CK2 Kinase Assay (33P-ATP, filter plate); assay type: biochemical; conditions: recombinant human CK2, final ATP concentration 15 μM, 10 min at 30° C.; read-out: protein kinase CK2 inhibition IC50
T1 construct: purchased Millipore
Description: CK2 Kinase Assay was conducted using the protocol as described in Pierre F. et al; J. Med. Chem. 2011, 54, 635-654. The tested compounds in aqueous solution were added at a volume of 10 μL to a reaction mixture comprising 10 μL of assay dilution buffer (ADB; 20 mM MOPS, pH 7.2, 25 mM B-glycerol phosphate, 5 mM EGTA, 1 mM sodium orthovanadate, and 1 mM dithiothreitol), 10 μL of substrate peptide (RRRDDDSDDD, dissolved in ADB at a concentration of 1 mM), 10 μL of recombinant human CK2 (RRBB-holoenzyme, 25 ng dissolved in ADB; Millipore). Reactions were initiated by the addition of 10 μL of ATP solution (90% 75 mMMgCl2, 75 μM ATP (final ATP concentration: 15 μM) dissolved in ADB; 10% [γ-33P] ATP (stock 1mCi/100 μL; 3000 Ci/mmol (Perkin-Elmer) and maintained for 10 min at 30° C. The reactions were quenched with 100 μL of 0.75% phosphoric acid and then transferred to and filtered through a phosphor cellulose filter plate (Millipore). After washing each well five times with 0.75% phosphoric acid, the plate was dried under vacuum for 5 min and, following the addition of 15 μL of scintillation fluid to each well, the residual radioactivity was measured using a Wallac luminescence counter. The IC50 values were derived from eight concentrations of test inhibitors.

T1 sequence (P68400 whole entry): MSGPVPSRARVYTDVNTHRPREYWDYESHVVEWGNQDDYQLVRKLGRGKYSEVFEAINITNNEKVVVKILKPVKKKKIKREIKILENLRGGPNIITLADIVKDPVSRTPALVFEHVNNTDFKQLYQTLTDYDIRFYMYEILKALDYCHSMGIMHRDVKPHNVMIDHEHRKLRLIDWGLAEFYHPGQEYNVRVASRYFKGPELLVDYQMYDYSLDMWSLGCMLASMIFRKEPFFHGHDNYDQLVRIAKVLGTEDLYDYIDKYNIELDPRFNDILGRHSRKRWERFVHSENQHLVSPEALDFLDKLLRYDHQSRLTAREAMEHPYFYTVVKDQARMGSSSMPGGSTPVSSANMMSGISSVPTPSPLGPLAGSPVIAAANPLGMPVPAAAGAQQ
T1 sequence (P67870 whole entry partner): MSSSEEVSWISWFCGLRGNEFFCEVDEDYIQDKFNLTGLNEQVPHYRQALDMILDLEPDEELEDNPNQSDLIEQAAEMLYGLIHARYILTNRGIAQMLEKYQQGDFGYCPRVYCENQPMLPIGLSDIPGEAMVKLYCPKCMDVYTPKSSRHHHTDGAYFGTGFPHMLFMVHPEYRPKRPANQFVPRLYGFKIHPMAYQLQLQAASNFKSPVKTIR

- IC50 [9]: 89 nM
SMILES: O=C(O)c1ccn2c1nc(Nc1cccc(Cl)c1)c1ccncc12 [Compound 1, 5-((3-chlorophenyl)amino)pyrido[4,3-e]pyrrolo[1,2-a]pyrimidine-7-carboxylic acid]
- IC50 [1]: 2400 nM
- IC50 [2]: 2100 nM
- IC50 [3]: 4.6 µM
- IC50 [4]: 1900 nM
- IC50 [5]: 1300 nM
- IC50 [6]: 3.5 µM
- IC50 [7]: 5.6 µM
- IC50 [8]: 4.2 µM

Source: patent US12012406B1, “Pyrido[4,3-e]pyrrolo[1,2-a]pyrimidine as CK2 inhibitors” (KING FAISAL UNIVERSITY, priority 2024, dated 2024)
